Data reported in ChEMBL document CHEMBL3758163, “Extended structure-activity study of thienopyrimidine-based EGFR inhibitors with evaluation of drug-like properties” (Eur J Med Chem, 2016).

Tests used:
[1] = target: T1, Ephrin type-A receptor 1 (Homo sapiens) (UniProt P21709); assay: Inhibition of EPHA1 (unknown origin) at 500 nM
T1 sequence (whole entry): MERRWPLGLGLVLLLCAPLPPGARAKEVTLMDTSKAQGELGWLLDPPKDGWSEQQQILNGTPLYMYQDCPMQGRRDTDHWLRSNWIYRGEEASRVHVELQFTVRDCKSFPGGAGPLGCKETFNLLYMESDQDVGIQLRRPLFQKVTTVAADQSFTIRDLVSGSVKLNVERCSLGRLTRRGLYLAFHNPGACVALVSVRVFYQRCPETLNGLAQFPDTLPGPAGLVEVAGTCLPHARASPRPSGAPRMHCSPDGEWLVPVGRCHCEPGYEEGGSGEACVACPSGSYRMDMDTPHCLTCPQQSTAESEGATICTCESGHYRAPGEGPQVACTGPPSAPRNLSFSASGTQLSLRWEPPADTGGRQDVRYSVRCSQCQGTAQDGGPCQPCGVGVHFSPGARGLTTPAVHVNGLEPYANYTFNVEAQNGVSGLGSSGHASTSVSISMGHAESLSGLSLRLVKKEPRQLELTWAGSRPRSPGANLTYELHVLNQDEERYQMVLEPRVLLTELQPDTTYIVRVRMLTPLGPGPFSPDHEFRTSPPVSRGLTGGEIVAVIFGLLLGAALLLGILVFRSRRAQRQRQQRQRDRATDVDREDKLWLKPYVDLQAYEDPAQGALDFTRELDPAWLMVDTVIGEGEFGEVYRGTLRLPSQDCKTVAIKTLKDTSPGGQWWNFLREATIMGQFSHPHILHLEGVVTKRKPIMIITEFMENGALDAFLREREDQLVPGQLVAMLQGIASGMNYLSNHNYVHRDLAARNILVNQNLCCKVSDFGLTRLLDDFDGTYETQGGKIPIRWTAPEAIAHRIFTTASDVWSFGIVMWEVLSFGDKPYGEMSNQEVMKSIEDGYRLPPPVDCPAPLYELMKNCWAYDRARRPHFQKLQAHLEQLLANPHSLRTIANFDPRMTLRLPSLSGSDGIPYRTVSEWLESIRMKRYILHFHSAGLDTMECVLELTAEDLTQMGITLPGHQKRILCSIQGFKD

[2] = target: Receptor tyrosine-protein kinase erbB-2 (Homo sapiens) (UniProt P04626); assay: Inhibition of ERBB2 (unknown origin) at 500 nM
Sequence of Receptor tyrosine-protein kinase erbB-2 (Homo sapiens) (P04626 whole entry): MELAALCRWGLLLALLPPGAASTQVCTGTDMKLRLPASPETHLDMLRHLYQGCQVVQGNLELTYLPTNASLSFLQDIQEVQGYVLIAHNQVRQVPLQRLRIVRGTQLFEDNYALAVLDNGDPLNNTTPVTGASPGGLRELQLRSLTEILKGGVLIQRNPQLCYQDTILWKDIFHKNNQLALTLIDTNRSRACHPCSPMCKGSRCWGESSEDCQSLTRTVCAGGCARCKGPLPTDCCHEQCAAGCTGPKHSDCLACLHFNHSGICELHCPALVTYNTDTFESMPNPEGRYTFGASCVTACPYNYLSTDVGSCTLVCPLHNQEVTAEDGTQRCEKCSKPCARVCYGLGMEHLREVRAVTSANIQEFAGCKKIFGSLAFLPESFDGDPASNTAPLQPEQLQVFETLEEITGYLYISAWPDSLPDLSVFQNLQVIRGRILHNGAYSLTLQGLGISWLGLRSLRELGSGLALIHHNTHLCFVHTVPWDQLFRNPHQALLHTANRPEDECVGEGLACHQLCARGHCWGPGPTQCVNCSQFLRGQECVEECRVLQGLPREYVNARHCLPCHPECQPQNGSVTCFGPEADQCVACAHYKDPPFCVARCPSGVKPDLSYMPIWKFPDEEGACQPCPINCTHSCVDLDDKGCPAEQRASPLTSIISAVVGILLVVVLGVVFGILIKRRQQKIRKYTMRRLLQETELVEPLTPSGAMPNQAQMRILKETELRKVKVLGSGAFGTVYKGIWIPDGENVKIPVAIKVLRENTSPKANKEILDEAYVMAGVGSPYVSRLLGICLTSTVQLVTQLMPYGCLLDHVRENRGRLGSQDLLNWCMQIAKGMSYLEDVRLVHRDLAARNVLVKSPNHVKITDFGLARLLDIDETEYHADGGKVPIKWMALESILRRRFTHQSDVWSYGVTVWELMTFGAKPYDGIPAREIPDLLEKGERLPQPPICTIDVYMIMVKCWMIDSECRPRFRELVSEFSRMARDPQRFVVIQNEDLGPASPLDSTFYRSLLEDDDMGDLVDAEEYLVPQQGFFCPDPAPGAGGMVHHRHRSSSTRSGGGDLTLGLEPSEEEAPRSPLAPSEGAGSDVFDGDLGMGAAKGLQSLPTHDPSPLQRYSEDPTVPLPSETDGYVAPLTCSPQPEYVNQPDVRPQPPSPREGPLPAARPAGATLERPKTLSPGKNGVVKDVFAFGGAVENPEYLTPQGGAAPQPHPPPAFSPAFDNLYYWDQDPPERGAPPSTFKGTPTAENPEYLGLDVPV

[3] = target: Glycogen synthase kinase-3 beta (Homo sapiens) (UniProt P49841); assay: Inhibition of GSK3B (unknown origin) at 500 nM
Sequence of Glycogen synthase kinase-3 beta (Homo sapiens) (P49841 whole entry, looked up): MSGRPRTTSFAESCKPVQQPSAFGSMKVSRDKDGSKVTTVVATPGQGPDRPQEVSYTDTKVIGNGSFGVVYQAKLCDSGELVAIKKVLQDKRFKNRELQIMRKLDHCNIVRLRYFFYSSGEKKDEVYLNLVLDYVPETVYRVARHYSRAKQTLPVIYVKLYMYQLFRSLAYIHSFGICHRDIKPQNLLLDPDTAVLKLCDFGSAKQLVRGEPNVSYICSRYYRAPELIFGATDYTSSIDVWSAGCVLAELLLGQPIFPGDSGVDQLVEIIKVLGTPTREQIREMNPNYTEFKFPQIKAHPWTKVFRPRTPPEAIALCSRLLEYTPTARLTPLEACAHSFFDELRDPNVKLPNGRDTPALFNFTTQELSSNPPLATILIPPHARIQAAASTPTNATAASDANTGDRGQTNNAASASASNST

[4] = target: Tyrosine-protein kinase HCK (Homo sapiens) (UniProt P08631); assay: Inhibition of HCK (unknown origin) at 500 nM
[5] = target: Dual specificity mitogen-activated protein kinase kinase 1 (Homo sapiens) (UniProt Q02750); assay: Inhibition of MAP2K1 (unknown origin) at 500 nM
[6] = target: Mitogen-activated protein kinase 14 (Homo sapiens) (UniProt Q16539); assay: Inhibition of MAPK14 (unknown origin) at 500 nM
Sequence of Mitogen-activated protein kinase 14 (Homo sapiens) (Q16539 whole entry): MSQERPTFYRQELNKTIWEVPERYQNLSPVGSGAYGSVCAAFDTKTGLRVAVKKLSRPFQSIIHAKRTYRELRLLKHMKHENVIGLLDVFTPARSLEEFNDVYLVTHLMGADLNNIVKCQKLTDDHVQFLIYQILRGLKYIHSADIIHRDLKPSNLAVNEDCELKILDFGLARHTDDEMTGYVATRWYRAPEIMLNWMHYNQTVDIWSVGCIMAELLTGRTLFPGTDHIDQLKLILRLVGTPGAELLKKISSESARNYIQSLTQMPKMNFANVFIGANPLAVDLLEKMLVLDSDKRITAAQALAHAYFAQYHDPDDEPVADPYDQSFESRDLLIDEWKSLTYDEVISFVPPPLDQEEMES

[7] = target: Platelet-derived growth factor receptor beta (Homo sapiens) (UniProt P09619); assay: Inhibition of PDGFRB (unknown origin) at 500 nM
Sequence of Platelet-derived growth factor receptor beta (Homo sapiens) (P09619 whole entry): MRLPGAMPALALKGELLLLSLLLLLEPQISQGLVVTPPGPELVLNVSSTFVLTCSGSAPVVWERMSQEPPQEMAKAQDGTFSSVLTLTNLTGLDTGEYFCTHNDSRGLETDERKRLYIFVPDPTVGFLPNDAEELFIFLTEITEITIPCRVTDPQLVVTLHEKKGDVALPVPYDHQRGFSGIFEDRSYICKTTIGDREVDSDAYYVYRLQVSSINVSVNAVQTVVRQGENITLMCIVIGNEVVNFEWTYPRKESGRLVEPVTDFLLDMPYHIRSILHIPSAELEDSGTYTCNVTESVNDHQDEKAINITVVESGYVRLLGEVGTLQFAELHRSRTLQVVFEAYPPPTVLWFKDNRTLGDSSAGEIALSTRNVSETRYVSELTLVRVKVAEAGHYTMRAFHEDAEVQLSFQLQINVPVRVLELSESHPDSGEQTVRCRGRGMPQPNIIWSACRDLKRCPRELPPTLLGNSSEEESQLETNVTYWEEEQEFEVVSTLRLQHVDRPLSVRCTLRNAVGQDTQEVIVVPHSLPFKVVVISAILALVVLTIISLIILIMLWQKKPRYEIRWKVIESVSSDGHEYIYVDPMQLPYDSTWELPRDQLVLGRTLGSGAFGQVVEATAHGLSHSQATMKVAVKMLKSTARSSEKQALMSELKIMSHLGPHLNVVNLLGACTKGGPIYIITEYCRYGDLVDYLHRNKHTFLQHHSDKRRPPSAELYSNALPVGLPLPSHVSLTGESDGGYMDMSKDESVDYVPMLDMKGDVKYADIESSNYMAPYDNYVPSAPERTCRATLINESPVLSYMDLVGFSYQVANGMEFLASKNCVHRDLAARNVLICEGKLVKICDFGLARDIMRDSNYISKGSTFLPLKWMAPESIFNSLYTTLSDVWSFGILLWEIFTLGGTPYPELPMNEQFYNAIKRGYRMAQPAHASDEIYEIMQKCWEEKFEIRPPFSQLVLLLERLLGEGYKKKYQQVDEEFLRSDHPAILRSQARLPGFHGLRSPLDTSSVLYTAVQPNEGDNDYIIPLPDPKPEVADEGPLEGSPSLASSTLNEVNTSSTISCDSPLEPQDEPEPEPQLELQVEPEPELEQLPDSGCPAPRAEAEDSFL

[8] = target: Protein kinase C theta type (Homo sapiens) (UniProt Q04759); assay: Inhibition of PRKCQ (unknown origin) at 500 nM
Sequence of Protein kinase C theta type (Homo sapiens) (Q04759 whole entry, looked up): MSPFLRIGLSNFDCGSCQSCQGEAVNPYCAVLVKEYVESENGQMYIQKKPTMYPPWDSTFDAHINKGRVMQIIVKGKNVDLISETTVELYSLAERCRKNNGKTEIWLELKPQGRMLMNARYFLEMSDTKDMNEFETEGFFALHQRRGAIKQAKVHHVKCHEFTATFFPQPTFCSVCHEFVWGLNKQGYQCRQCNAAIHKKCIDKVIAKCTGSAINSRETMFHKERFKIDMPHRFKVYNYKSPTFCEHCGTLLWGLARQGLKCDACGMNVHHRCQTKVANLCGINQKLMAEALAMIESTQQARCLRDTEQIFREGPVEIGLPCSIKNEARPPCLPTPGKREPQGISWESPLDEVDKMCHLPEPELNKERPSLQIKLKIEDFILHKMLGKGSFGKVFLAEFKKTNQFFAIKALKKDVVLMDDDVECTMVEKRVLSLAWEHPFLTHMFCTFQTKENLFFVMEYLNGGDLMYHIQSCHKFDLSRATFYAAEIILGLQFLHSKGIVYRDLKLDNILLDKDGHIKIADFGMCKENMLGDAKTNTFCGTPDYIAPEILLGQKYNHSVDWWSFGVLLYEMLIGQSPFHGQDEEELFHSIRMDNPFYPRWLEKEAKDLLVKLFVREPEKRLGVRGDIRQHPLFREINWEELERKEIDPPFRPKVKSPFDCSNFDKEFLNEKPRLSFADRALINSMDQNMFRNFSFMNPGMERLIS

[9] = target: T2, Testis-specific serine/threonine-protein kinase 2 (Homo sapiens) (UniProt Q96PF2); assay: Inhibition of STK22B (unknown origin) at 500 nM
T2 sequence (whole entry): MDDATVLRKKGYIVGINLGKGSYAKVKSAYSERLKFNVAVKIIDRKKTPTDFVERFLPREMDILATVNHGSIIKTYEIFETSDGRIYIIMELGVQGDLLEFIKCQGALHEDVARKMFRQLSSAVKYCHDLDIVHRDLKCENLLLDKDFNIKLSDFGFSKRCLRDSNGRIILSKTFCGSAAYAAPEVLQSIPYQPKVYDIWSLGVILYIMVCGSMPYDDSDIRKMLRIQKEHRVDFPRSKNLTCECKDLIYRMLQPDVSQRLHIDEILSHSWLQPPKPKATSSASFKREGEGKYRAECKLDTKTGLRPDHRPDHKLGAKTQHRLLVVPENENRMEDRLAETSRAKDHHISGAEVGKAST

[10] = target: Angiopoietin-1 receptor (Homo sapiens) (UniProt Q02763); assay: Inhibition of TEK (unknown origin) at 500 nM
Sequence of Angiopoietin-1 receptor (Homo sapiens) (Q02763 whole entry): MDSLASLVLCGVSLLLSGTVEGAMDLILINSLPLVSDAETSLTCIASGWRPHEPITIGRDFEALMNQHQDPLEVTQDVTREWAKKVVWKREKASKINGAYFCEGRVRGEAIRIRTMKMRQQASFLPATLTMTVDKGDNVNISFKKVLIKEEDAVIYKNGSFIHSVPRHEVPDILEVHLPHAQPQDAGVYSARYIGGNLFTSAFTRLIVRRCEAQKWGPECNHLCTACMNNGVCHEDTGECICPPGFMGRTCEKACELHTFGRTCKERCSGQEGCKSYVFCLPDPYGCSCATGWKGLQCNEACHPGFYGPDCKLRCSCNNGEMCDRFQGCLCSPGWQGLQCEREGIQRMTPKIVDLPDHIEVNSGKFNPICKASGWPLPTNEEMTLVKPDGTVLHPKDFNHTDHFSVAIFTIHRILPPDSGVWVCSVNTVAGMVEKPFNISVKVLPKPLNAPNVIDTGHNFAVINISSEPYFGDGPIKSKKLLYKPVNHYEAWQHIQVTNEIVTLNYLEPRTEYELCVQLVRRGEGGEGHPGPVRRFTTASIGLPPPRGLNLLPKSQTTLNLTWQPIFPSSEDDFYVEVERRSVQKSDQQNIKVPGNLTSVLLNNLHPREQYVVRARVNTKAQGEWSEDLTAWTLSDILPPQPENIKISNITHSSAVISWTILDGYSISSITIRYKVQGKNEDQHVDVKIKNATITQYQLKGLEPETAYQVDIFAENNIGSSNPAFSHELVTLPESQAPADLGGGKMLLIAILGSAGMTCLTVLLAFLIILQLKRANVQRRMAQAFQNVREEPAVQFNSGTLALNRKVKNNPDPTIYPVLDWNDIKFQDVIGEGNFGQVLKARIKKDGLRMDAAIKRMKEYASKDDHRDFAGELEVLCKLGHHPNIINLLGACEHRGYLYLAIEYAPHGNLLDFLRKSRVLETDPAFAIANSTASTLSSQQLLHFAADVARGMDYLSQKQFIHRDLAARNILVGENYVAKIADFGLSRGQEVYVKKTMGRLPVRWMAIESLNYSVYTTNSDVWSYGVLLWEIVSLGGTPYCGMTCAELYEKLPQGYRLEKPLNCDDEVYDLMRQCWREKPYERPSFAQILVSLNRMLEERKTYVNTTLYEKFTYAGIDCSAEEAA

[11] = Half-life in human liver microsomes at 3 uM by LC-MS/MS analysis; assay type: ADME
[12] = Antiproliferative activity against human PC9 cells after 96 hrs by Sytox green marker based fluorescence analysis; assay type: functional, cell-based; conditions: PC-9, 96 h
[13] = Antiproliferative activity against human Calu3 cells after 72 hrs by CellTiter blue assay; assay type: functional, cell-based; conditions: Calu-3, 72 h
[14] = Antiproliferative activity against human BT474 cells after 72 hrs by CellTiter blue assay; assay type: functional, cell-based; conditions: BT-474, 72 h
[15] = Antiproliferative activity against human Hs578T cells after 72 hrs by CellTiter-Glo assay; assay type: functional, cell-based; conditions: Hs-578T
[16] = Antiproliferative activity against human SKBR3 cells after 72 hrs by CellTiter blue assay; assay type: functional, cell-based; conditions: SK-BR-3, 72 h
[17] = Antiproliferative activity against human OVCAR3 cells after 72 hrs by CellTiter-Glo assay; assay type: functional, cell-based; conditions: OVCAR-3, 72 h
SW480 = assay: Antiproliferative activity against human SW480 cells after 72 hrs by CellTiter-Glo assay; assay type: functional, cell-based; conditions: SW480, 72 h
H9 = assay: Antiproliferative activity against human H9 cells after 72 hrs by CellTiter-Glo assay; assay type: functional, cell-based; conditions: H9, 72 h
[18] = Antiproliferative activity against human U937 cells after 72 hrs by CellTiter blue assay; assay type: functional, cell-based; conditions: U-937, 72 h
FaDu = assay: Antiproliferative activity against human FADU cells; assay type: functional, cell-based
MRC5 = assay: Antiproliferative activity against human MRC5 cells after 72 hrs by CellTiter-Glo assay; assay type: cell-based; conditions: MRC5, 72 h
[19] = Toxicity in zebrafish embryo assessed as survival for 3.5 days; assay type: organism-based, Danio rerio; conditions: in vivo
[20] = Toxicity in zebrafish embryo assessed as morphological defects for 3.5 days; assay type: organism-based, Danio rerio
Danio rerio [21] = species on record: Danio rerio; assay: Toxicity in zebrafish embryo assessed as effect on morphology upto 25 uM; assay type: organism-based; conditions: in vivo
Danio rerio [22] = species on record: Danio rerio; assay: Toxicity in zebrafish embryo assessed as kinked tails at 50 and 100 uM; assay type: organism-based; conditions: in vivo

Which inhibition [1] does the source give for `COc1cc(CO)ccc1-c1cc2c(N[C@H](CO)c3ccccc3)ncnc2s1` here?
The inhibition was 1%.

What about the inhibition [2] of the same compound?
Its inhibition is 50%.

And the inhibition [3]?
Its inhibition is 8%.

And the inhibition [4]?
Its inhibition is 20%.

What about the inhibition [5] of the same compound?
The inhibition was 18%.

And the inhibition [6]?
The inhibition was 13%.

And the inhibition [7]?
Its inhibition is 1%.

What about the inhibition [8] of the same compound?
The inhibition was 1%.

And the inhibition [9]?
Its inhibition is 8%.

What about the inhibition [10] of the same compound?
Its inhibition is 13%.

And the half-life at 3 µM [11]?
The half-life at 3 µM was 2.57 h.

What about the IC50 [12] of the same compound?
The IC50 was 0.09 µM.

And the IC50 [13]?
Its IC50 is 4.2 µM.

And the IC50 [14]?
Its IC50 is 11 µM.

What about the IC50 [15] of the same compound?
Its IC50 is 43 µM.

What about the IC50 [16] of the same compound?
Its IC50 is 17 µM.

What about the IC50 [17] of the same compound?
The IC50 was 9.7 µM.

And the IC50 (SW480)?
Its IC50 is 19 µM.

What about the IC50 (H9) of the same compound?
Its IC50 is 12 µM.

And the IC50 [18]?
The IC50 was 18 µM.

And the IC50 (FaDu)?
The IC50 was 43 µM.

What about the IC50 (MRC5) of the same compound?
Its IC50 is 37 µM.

What about the LC50 at 84 h [19] of the same compound?
The LC50 at 84 h was > 100 µM.

What about the EC50 at 3.5 days [20] of the same compound?
The EC50 at 3.5 days was 49 µM.

What about the Activity (Danio rerio [21]) of the same compound?
The Activity was “Non-toxic”.

What about the Activity (Danio rerio [22]) of the same compound?
The Activity was “Toxic”.
